Literature values as cited in patent publication US20200245666A1, “CANNABINOID EMULSIONS, BEVERAGES AND FOODS” (Lighthouse Strategies, LLC, priority 2019, published 2020).

Conditions: smoking a 3.55% THC cigarette

In the case of `CCCCCc1cc(O)c2c(c1)OC(C)(C)[C@@H]1CCC(C)=C[C@@H]21` [THC, Δ9-tetrahydrocannabinol], the peak plasma level is listed as 152 ± 86.3 ng/mL and the “time of peak plasma level after inhalation” value is listed as “approximately 10 minutes”.
